In patent US10294202B2, “Pyrrolidinones as herbicides” (FMC Corporation, priority 2013, dated 2019):
Where two headings read alike, the source gives them in different places.

Columns and labels:
oilseed rape = test: Test C pre-/postemergence herbicide test; assay type: in vivo, Brassica napus
Outline: (§1)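 Visual rating, 0 (no effect) to 100 (complete control), versus untreated controls after 13 to 15 days in the greenhouse. Pre: seeds in loam/sand, sprayed at planting. Post: 1- to 4-leaf plants (2 to 18 cm) in peat-based mix. Compounds in non-phytotoxic solvent plus surfactant.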

wheat = test: Test A pre-/postemergence herbicide test; assay type: in vivo, Triticum aestivum
Outline: (§2)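 Seeds sown in loam soil/sand blend received a preemergence directed soil spray of test chemical in non-phytotoxic solvent with surfactant; postemergence plants (2–10 cm, one- to two-leaf stage) were sprayed with the same formulation. After about 10 days in greenhouse, injury was rated visually versus untreated controls, 0 (no effect) to 100 (complete control).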

wheat (winter wheat) = test: Test C pre-/postemergence herbicide test; assay type: in vivo, Triticum aestivum
Outline: as §1

ragweed = test: Test C pre-/postemergence herbicide test; assay type: in vivo, Ambrosia elatior
Outline: as §1

oat, wild = test: Test C pre-/postemergence herbicide test; assay type: in vivo, Avena fatua; conditions: Postemergence
Outline: as §1

pigweed = test: Test A pre-/postemergence herbicide test; assay type: in vivo, Amaranthus retroflexus
Outline: as §2

nutsedge, yellow = test: Test C pre-/postemergence herbicide test; assay type: in vivo, Cyperus esculentus
Outline: as §1

soybean = test: Test C pre-/postemergence herbicide test; assay type: in vivo, Glycine max; conditions: for Soybean plant response rating: scale 0 to 100, 0 is no effect and 100 is complete control
Outline: as §1

waterhemp = test: Test C pre-/postemergence herbicide test; assay type: in vivo, Amaranthus rudis
Outline: as §1

giant foxtail = test: Test A pre-/postemergence herbicide test; assay type: in vivo, Setaria faberii
Outline: as §2

[1] = Postemergence, 31 g ai/ha, scale 0 (no effect) to 100 (complete control)
[2] = Postemergence, 62 g ai/ha, scale 0 to 100 (0 no effect, 100 complete control)
[3] = Postemergence, 125 g ai/ha, scale 0 to 100 (0 no effect, 100 complete control)
[4] = Postemergence, 250 g ai/ha, scale 0 to 100 (0 no effect, 100 complete control)
[5] = Preemergence, 31 g ai/ha, scale 0 to 100, 0 is no effect and 100 is complete control
[6] = Preemergence, 62 g ai/ha, scale 0 to 100
[7] = Preemergence, 125 g ai/ha, scale 0 to 100 (0 no effect, 100 complete control)
[8] = Postemergence, 125 g ai/ha, 0 to 100 scale, 0 no effect, 100 complete control
[9] = Postemergence, 500 g ai/ha, 0 to 100 scale (0 no effect, 100 complete control)
[10] = Preemergence, 125 g ai/ha, visual rating on 0 to 100 scale (0 no effect, 100 complete control)
[11] = preemergence, 500 g ai/ha, 0 to 100 scale
[12] = 125 g ai/ha, scale 0 to 100 (0 no effect, 100 complete control)
[13] = 250 g ai/ha, scale 0 to 100 (0 no effect, 100 complete control)
[14] = Postemergence, 31 g ai/ha, scale 0 to 100 (0 no effect, 100 complete control)
[15] = Postemergence, 62 g ai/ha, scale 0 (no effect) to 100 (complete control)
[16] = Preemergence, 62 g ai/ha, scale 0 to 100 (0 no effect, 100 complete control)

O=C1NCC(c2ccc(F)c(F)c2)C1C(=O)Nc1cccc(F)c1F (racemic) [Compound 101]
Plant response rating, Oilseed Rape (oilseed rape; [1]): 5 | Plant response rating, Oilseed Rape (oilseed rape; [2]): 10 | Plant response rating, Oilseed Rape (oilseed rape; [3]): 50 | Plant response rating, Oilseed Rape (oilseed rape; [4]): 35 | Oilseed Rape plant response rating (oilseed rape; [5]): 0 | Plant response rating, Oilseed Rape (oilseed rape; [6]): 35 | Plant response rating, Oilseed Rape (oilseed rape; [7]): 80 | Plant response rating (scale of 0 to 100), Oilseed Rape (oilseed rape; Preemergence, 250 g ai/ha): 80 | Plant response rating, Wheat (wheat; [8]): 50 | Plant response rating, Wheat (wheat; [9]): 60 | Wheat plant response rating (wheat; [10]): 60 | Plant response rating, Wheat (wheat; [11]): 70 | Plant response rating, Wheat (wheat (winter wheat); [1]): 0 | Plant response rating, Wheat (wheat (winter wheat); [2]): 0 | Plant response rating, Wheat (wheat (winter wheat); [3]): 0 | Plant response rating, Wheat (wheat (winter wheat); [4]): 0 | Wheat plant response rating (wheat (winter wheat); [5]): 0 | Plant response rating, Wheat (wheat (winter wheat); [6]): 20 | Plant response rating, Wheat (wheat (winter wheat); [7]): 50 | Plant response rating (scale of 0 to 100), Wheat (wheat (winter wheat); Preemergence, 250 g ai/ha): 55 | Plant response rating, Ragweed (ragweed; [1]): 0 | Plant response rating, Ragweed (ragweed; [2]): 0 | Plant response rating, Ragweed (ragweed; [3]): 5 | Plant response rating, Ragweed (ragweed; [4]): 45 | Ragweed plant response rating (ragweed; [5]): 15 | Plant response rating, Ragweed (ragweed; [6]): 0 | Plant response rating, Ragweed (ragweed; [7]): 5 | Plant response rating (scale of 0 to 100), Ragweed (ragweed; Preemergence, 250 g ai/ha): 5 | Plant response rating, Oat, Wild (oat, wild; 31 g ai/ha, scale 0 (no effect) to 100 (complete control)): 0 | Plant response rating, Oat, Wild (oat, wild; 62 g ai/ha, scale 0 to 100 (0 no effect, 100 complete control)): 0 | Plant response rating, Oat, Wild (oat, wild; [12]): 0 | Plant response rating, Oat, Wild (oat, wild; [13]): 0 | Plant response rating, Pigweed (pigweed; [8]): 20 | Plant response rating, Pigweed (pigweed; [9]): 70 | Pigweed plant response rating (pigweed; [10]): 10 | Plant response rating, Pigweed (pigweed; [11]): 70 | Plant response rating, Nutsedge, Yellow (nutsedge, yellow; [1]): 0 | Plant response rating, Nutsedge, Yellow (nutsedge, yellow; [2]): 0 | Plant response rating, Nutsedge, Yellow (nutsedge, yellow; [3]): 0 | Plant response rating, Nutsedge, Yellow (nutsedge, yellow; [4]): 5 | Nutsedge, Yellow plant response rating (nutsedge, yellow; [5]): 0 | Plant response rating, Nutsedge, Yellow (nutsedge, yellow; [6]): 0 | Plant response rating, Nutsedge, Yellow (nutsedge, yellow; [7]): 0 | Plant response rating (scale of 0 to 100), Nutsedge, Yellow (nutsedge, yellow; Preemergence, 250 g ai/ha): 0 | Plant response rating, Soybean (soybean; [1]): 0 | Plant response rating, Soybean (soybean; [2]): 0 | Plant response rating, Soybean (soybean; [3]): 5 | Plant response rating, Soybean (soybean; [4]): 5 | Soybean plant response rating (soybean; Preemergence, 31 g ai/ha): 0 | Plant response rating, Soybean (soybean; [6]): 0 | Plant response rating, Soybean (soybean; [7]): 0 | Plant response rating (scale of 0 to 100), Soybean (soybean; Preemergence, 250 g ai/ha): 10 | Plant response rating, Waterhemp (waterhemp; [1]): 0 | Plant response rating, Waterhemp (waterhemp; [2]): 5 | Plant response rating, Waterhemp (waterhemp; [3]): 20 | Plant response rating, Waterhemp (waterhemp; [4]): 35 | Waterhemp plant response rating (waterhemp; [5]): 50 | Plant response rating, Waterhemp (waterhemp; [6]): 70 | Plant response rating, Waterhemp (waterhemp; [7]): 50 | Plant response rating (scale of 0 to 100), Waterhemp (waterhemp; Preemergence, 250 g ai/ha): 85 | Plant response rating, Foxtail, Giant (giant foxtail; [8]): 80 | Plant response rating, Foxtail, Giant (giant foxtail; [9]): 90 | Foxtail, Giant plant response rating (giant foxtail; [10]): 90 | Plant response rating, Foxtail, Giant (giant foxtail; [11]): 90

O=C1NC[C@H](c2cccc(C(F)(F)F)c2)[C@H]1C(=O)Nc1ccccc1F [Compound 204, (3R,4S)—N-(2-fluorophenyl)-2-oxo-4-[3-(trifluoromethyl)phenyl]-3-pyrrolidinecarboxamide]
Plant response rating, Oilseed Rape (oilseed rape; [14]): 0 | Plant response rating, Oilseed Rape (oilseed rape; [15]): 0 | Plant response rating, Oilseed Rape (oilseed rape; [3]): 0 | Plant response rating, Oilseed Rape (oilseed rape; [4]): 45 | Oilseed Rape plant response rating (oilseed rape; [5]): 0 | Oilseed Rape plant response rating (oilseed rape; [16]): 0 | Plant response rating, Oilseed Rape (oilseed rape; [7]): 0 | Plant response rating (scale of 0 to 100), Oilseed Rape (oilseed rape; Preemergence, 250 g ai/ha): 60 | Wheat plant response rating (0 to 100 scale, 0 is no effect, 100 is complete control) (wheat; Postemergence, 500 g ai/ha): 80 | plant injury at 125 g/ha (wheat; Triticum aestivum, post-emergence, 240 h, Postemergence, 125 g ai/ha, 0 to 100 scale, 0 is no effect, 100 is complete control, read-out: Plant response rating, Wheat): 60% | Plant response rating, Wheat (wheat (winter wheat); [14]): 0 | Plant response rating, Wheat (wheat (winter wheat); [15]): 0 | Plant response rating, Wheat (wheat (winter wheat); [3]): 0 | Plant response rating, Wheat (wheat (winter wheat); [4]): 0 | Wheat plant response rating (wheat (winter wheat); [5]): 0 | Wheat plant response rating (wheat (winter wheat); [16]): 70 | Plant response rating, Wheat (wheat (winter wheat); [7]): 80 | Plant response rating (scale of 0 to 100), Wheat (wheat (winter wheat); Preemergence, 250 g ai/ha): 90 | Plant response rating, Ragweed (ragweed; [14]): 0 | Plant response rating, Ragweed (ragweed; [15]): 0 | Plant response rating, Ragweed (ragweed; [3]): 0 | Plant response rating, Ragweed (ragweed; [4]): 0 | Ragweed plant response rating (ragweed; [5]): 30 | Ragweed plant response rating (ragweed; [16]): 30 | Plant response rating, Ragweed (ragweed; [7]): 100 | Plant response rating (scale of 0 to 100), Ragweed (ragweed; Preemergence, 250 g ai/ha): 65 | Plant response rating, Oat, Wild (oat, wild; 31 g ai/ha, scale 0 to 100 (0 no effect, 100 complete control)): 0 | Plant response rating, Oat, Wild (oat, wild; 62 g ai/ha, scale 0 (no effect) to 100 (complete control)): 0 | Plant response rating, Oat, Wild (oat, wild; [12]): 0 | Plant response rating, Oat, Wild (oat, wild; [13]): 5 | pest or weed control at 125 g/ha (pigweed; Amaranthus retroflexus, post-emergence, 240 h, Postemergence, 125 g ai/ha, 0 to 100 scale, 0 is no effect, 100 is complete control, read-out: Plant response rating, Pigweed): 0% | pest or weed control at 125 g/ha (pigweed; Amaranthus retroflexus, pre-emergence, 240 h, 125 g ai/ha, visual rating, 0 to 100 scale, 0 no effect, 100 complete control, approximately 10 days, read-out: Plant response rating, Pigweed): 0% | pest or weed control at 500 g/ha (pigweed; Amaranthus retroflexus, pre-emergence, 240 h, preemergence, 500 g ai/ha, 0 to 100 scale, 0 is no effect and 100 is complete control, read-out: Plant response rating, Pigweed): 50% | Pigweed plant response rating (0 to 100 scale, 0 is no effect, 100 is complete control) (pigweed; Postemergence, 500 g ai/ha): 20 | Plant response rating, Nutsedge, Yellow (nutsedge, yellow; [14]): 0 | Plant response rating, Nutsedge, Yellow (nutsedge, yellow; [15]): 0 | Plant response rating, Nutsedge, Yellow (nutsedge, yellow; [3]): 0 | Plant response rating, Nutsedge, Yellow (nutsedge, yellow; [4]): 0 | Nutsedge, Yellow plant response rating (nutsedge, yellow; [5]): 0 | Nutsedge, Yellow plant response rating (nutsedge, yellow; [16]): 0 | Plant response rating, Nutsedge, Yellow (nutsedge, yellow; [7]): 0 | Plant response rating (scale of 0 to 100), Nutsedge, Yellow (nutsedge, yellow; Preemergence, 250 g ai/ha): 0 | Plant response rating, Soybean (soybean; [14]): 0 | Plant response rating, Soybean (soybean; [15]): 0 | Plant response rating, Soybean (soybean; [3]): 0 | Plant response rating, Soybean (soybean; [4]): 5 | Soybean plant response rating (soybean; Preemergence, 31 g ai/ha): 5 | Plant response rating, Soybean (soybean; [7]): 5 | Plant response rating (scale of 0 to 100), Soybean (soybean; Preemergence, 250 g ai/ha): 10 | Plant response rating, Waterhemp (waterhemp; [14]): 0 | Plant response rating, Waterhemp (waterhemp; [15]): 0 | Plant response rating, Waterhemp (waterhemp; [3]): 0 | Plant response rating, Waterhemp (waterhemp; [4]): 5 | Waterhemp plant response rating (waterhemp; [5]): 100 | Waterhemp plant response rating (waterhemp; [16]): 75 | Plant response rating, Waterhemp (waterhemp; [7]): 80 | Plant response rating (scale of 0 to 100), Waterhemp (waterhemp; Preemergence, 250 g ai/ha): 90 | Foxtail, Giant plant response rating (0 to 100 scale, 0 is no effect, 100 is complete control) (giant foxtail; Postemergence, 500 g ai/ha): 90 | pest or weed control at 125 g/ha (giant foxtail; Setaria faberi, post-emergence, 240 h, Postemergence, 125 g ai/ha, 0 to 100 scale, 0 is no effect, 100 is complete control, read-out: Plant response rating, Foxtail, Giant): 90% | pest or weed control at 125 g/ha (giant foxtail; Setaria faberi, pre-emergence, 240 h, 125 g ai/ha, visual rating, 0 to 100 scale, 0 no effect, 100 complete control, approximately 10 days, read-out: Plant response rating, Foxtail, Giant): 90% | pest or weed control at 500 g/ha (giant foxtail; Setaria faberi, pre-emergence, 240 h, preemergence, 500 g ai/ha, 0 to 100 scale, 0 is no effect and 100 is complete control, read-out: Plant response rating, Foxtail, Giant): 90%
